# From patent EP1158297A1, “METHOD FOR SCREENING COMPOUND HAVING AFFINITY FOR VITAMIN D RECEPTOR” (CHUGAI SEIYAKU KABUSHIKI KAISHA, priority 1999, dated 2000)
# Read-outs that look alike come from different tables or passages of the source.
# Legend:
# osteoporosis model rats [1] = type: in vivo; conditions: OVX rats, third lumbar vertebra
# Method: 7- to 9-week-old W-I female rats (Imamichi Institute for Animal Reproduction) were subject to ovariectomy. […] After the last dose, 24-hour urine was sampled and the blood was taken under ether anesthesia. After the animal was euthanized, the lumbar vertebrae were removed.
# The lumbar bone mineral density was measured at the third lumbar vertebra site using a dual X-ray bone mineral content measuring device (DCS-600, ALOKA). The blood and urinary calcium concentrations and the urinary creatinine concentration were measured with an automatic analyzer (Model 7170, Hitachi).
# Statistical processing was carried out using Statistic Analysis System (SAS) software. A comparison between a sham operation (sham) group and an ovariectomy (OVX) group was made by an unpaired t-test. A comparison between the OVX group and the drug treatment group, or a comparison between the sham group and the drug treatment group was made by Dunnett's multiple test. A P-value less then 5% was considered as a significant difference.
# VDRE = assay: Reporter gene (CAT) assay using reporter gene vector having VDRE; type: cell-based, African green monkey; conditions: for VDRE-mediated transcription promoting activity: relative value with the EC50 value of 1α,25-dihydroxyvitamin D3 as 100%, COS-1 cells with rat vitamin D receptor expression vector, CAT ELISA, lower = more potent
# Source text: The reporter gene vector having VDRE used was a product produced by integrating VDRE ([…]) of a mouse osteopontin gene into a cassette vector (pGCAT; Kato S. et al., Cell (1992)68, 731-742) containing a promoter region (-109/+10) of rabbit β-globin and CAT (chloramphenicol acetyltransferase). As an expression vector for β-galactosidase used for correction of transfection efficiency, pCH110 (Pharmacia) was used. As a carrier vector, BSM (BluescribeM13+: […]) was used.
# The rat vitamin D receptor expression vector used was a product obtained by integrating cDNA of a rat vitamin D receptor into pSG5 ([…]).
# COS-1 cells were cultured in a DMEM medium containing 5% FBS and 10 nM insulin, and cultures were subcultured at intervals of 3 or 4 days at a density of 1,500 to 3,000 cells/cm^2. The conditions for culture were 37°C and 5% CO2. For cultivation of COS-1 cells during reporter gene assay, a phenol red-free DMEM medium containing 5% DCC-FBS (charcoal-treated FBS) and 10 nM insulin was used. COS-1 cells were seeded into a 6-well plate at a density of 5 to 8 x 10^4 cells/1.75 mL/well. […]
# After overnight culture, each well was washed with 1 mL/well of a phenol red-free DMEM medium. […] Then, the amount of CAT expressed was measured using a CAT ELISA kit (Boehringer Mannheim).
# The cell lysate (10 µL), 175 µL of Buffer Z (60 mM Na2HPO4, 40 mM NaH2PO4, 10 mM KCl, 1 mM MgSO4) and 35 µL of 4 mg/mL ONPG (o-nitrophenyl-β-D-galactopyranoside; SIGMA) were mixed in a 96-well plate (Nunc-Immuno plate Maxi Sorp Surface) and the system was incubated for 1 hour at 37°C. Then, 100 µL of 1M Na2CO3 was added to terminate the reaction and A415 was measured with a plate reader. Based on the measured values, the number of units of the cell lysate was calculated from the following equation and the cell lysate in an amount corresponding to 15 units was used in CAT ELISA measurement. […]
# Based on the measured values of CAT ELISA, the EC50 value of each derivative was calculated to evaluate the VDRE-mediated action.
# osteoporosis model rats [2] = assay: Bone mass decrease in osteoporosis model rats, oral treatment (Example 3); type: in vivo
# Method: 8-week-old W-I female rats (Imamichi Institute for Animal Reproduction) were subjected to overiectomy. From the following day onward, 1α-hydroxyvitamin D3 was orally administered 5 times weekly in a daily dose of 0.1 µg/kg, or Compound No. 22 was orally administered daily for 5 weeks in a daily dose of 3 µg/kg given as a single dose or two divided doses. After the last dose, 24-hour urine was sampled and a blood sample was taken under ether anesthesia. After the animal was euthanized, the lumbar vertebrae were removed. The lumbar bone mineral density was measured at the third lumbar vertebra site using a dual X-ray bone mineral content measuring device (DCS-600EX, ALOKA). The blood and urinary calcium concentrations and the urinary creatinine concentration were measured with an automatic analyzer (Model 7170, Hitachi).
# Statistical processing was carried out using basic software for statistical analysis (SAS). A comparison between the sham group and the OVX group, a comparison between the OVX group and the 1α-hydroxyvitamin D3 treatment group, or a comparison between the sham group and the 1α-hydroxyvitamin D3 treatment group was made by an unpaired t-test, with the p value less than 5% representing a significant difference. A comparison between the OVX group and the Compound No. 22 group, or a comparison between the sham group and the Compound No. 22 group was made by Dunnett's multiple test, with the p value less than 5% showing a significant difference.
# AP-1 complex = assay: Reporter gene (luciferase) assay using reporter gene vector having AP-1 binding sequence; type: cell-based, human; conditions: IC37.5 value expressed as percentage of the value of 1α,25-dihydroxyvitamin D3 (100%); Jurkat cells with rat vitamin D receptor expression vector, PMA and ionomycin stimulation; lower = more potent
# Source text: (§1) A basic vector was constructed by inserting a promoter region (-72/+47) of a human IL-2 gene into a cassette vector of luciferase (pXP2; described in S.K. Nordeen, Biotechniques, Vol. 6, pp. 454-456, (1988)). For a reporter gene vector having an AP-1 binding sequence, five AP-1 binding sequences ([…]) of a human collagenase (MMP-1) gene were inserted tandem into the basic vector. For a reporter gene vector having an NF-κB binding sequence, four NF-κB binding sequences ([…]) of a human immunoglobulin light chain κ gene were inserted tandem into the basic vector. The resulting products were used as the respective reporter gene vectors.
# (§2) The rat vitamin D receptor expression vector used was a product obtained by inserting cDNA of a rat vitamin D receptor (described in James K. Burmester et al., Proc. Natl. Acad. Sci. USA, Vol. 85, pp. 9499-9502, […]) into the pSG5 ([…]).
# (§3) Jurkat cells were cultured in RPMI-1640 (GIBCO BRL) containing 10% FBS and antibiotics. The culture was started at a density of 5 x 10^4 cells/mL and the cells were subcultured at intervals of 3 or 4 days to a density of 5 x 10^4 cells/mL. The conditions for culture were 37°C and 5% CO2. […] Both of the solutions were mixed and then allowed to stand for 30 minute at room temperature.
# osteoporosis model rats [3] = assay: Bone strength decrease and bone resorption in osteoporosis model rats, oral treatment (Example 4); type: in vivo
# Method: 13-month-old W-I female rats (Imamichi Institute for Animal Reproduction) were subject to overiectomy. From the following day onward, Compound No. 22 was administered p.o. daily for 3 months in a daily dose of 1.5 to 6 µg/kg given as two divided doses. After the last dose, 24-hour urine was sampled and a blood sample was taken under ether anesthesia. After the animal was euthanized, the lumbar vertebrae were removed.
# The lumbar bone mineral density was measured at the second to fourth lumbar vertebra site using a dual X-ray bone mineral content measuring device (DCS-600EX, ALOKA). The bone strength of the fifth lumbar vertebra was measured with Autograph AG-2000E (Shimadzu Corp.). The blood calcium concentration and the urinary creatinine concentration were measured with an automatic analyzer (Model 7170, Hitachi). The urinary deoxypyridinoline was measured with Osteolinks DPD.
# Statistical Analysis was carried out using Statistic Analysis System (SAS) software. A comparison between the sham group and the OVX group was made by an unpaired t-test. A comparison between the OVX group and the Compound No. 22 treatment group, or a comparison between the sham group and the Compound No. 22 treatment group was made by Dunnett's multiple test, with the p value less than 5% showing a significant difference.
# NF-κB family = assay: Reporter gene (luciferase) assay using reporter gene vector having NF-κB binding sequence; type: cell-based, human; conditions: IC37.5 value expressed as percentage of the value of 1α,25-dihydroxyvitamin D3 (100%); Jurkat cells with rat vitamin D receptor expression vector, PMA and ionomycin stimulation; lower = more potent
# Source text: as §1, §2, §3
# vitamin D receptor = target: T1, vitamin D receptor (Homo sapiens, UniProt P11473); assay: Affinity for vitamin D receptor; type: binding; conditions: relative to that of 1α,25-dihydroxyvitamin D3
# T1 sequence (P11473 1-427): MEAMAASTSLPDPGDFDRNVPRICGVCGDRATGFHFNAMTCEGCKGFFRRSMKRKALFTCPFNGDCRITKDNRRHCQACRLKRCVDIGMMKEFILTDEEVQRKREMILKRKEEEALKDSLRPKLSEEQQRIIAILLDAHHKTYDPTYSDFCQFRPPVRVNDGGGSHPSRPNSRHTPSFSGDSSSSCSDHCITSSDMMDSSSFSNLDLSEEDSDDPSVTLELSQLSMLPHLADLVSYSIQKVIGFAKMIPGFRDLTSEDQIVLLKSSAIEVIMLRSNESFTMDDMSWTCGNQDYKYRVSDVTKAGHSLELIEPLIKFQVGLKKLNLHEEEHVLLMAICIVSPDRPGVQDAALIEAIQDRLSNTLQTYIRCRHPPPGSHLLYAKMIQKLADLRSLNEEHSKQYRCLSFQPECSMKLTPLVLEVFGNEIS
# [4] = OVX rats, 0.1 µg/kg orally 5 times weekly, in comparison with the sham group and the OVX group
SMILES,decrease in bone mineral density (osteoporosis model rats [1]; 0.04 µg/kg subcutaneously 5 times weekly for 6 weeks),VDRE-mediated transcription promoting activity (VDRE) [%],"decrease in bone mineral density by OVX (osteoporosis model rats [2]; 0.1 µg/kg orally 5 times weekly, third lumbar vertebra)",blood Ca level (osteoporosis model rats [2]; [4]),urinary Ca excretion (osteoporosis model rats [2]; [4]),decrease in bone mineral density (osteoporosis model rats [1]; 0.1 µg/kg subcutaneously 5 times weekly for 6 weeks),decrease in bone mineral density (osteoporosis model rats [1]; doses of 0.01 to 0.1 µg/kg subcutaneously 5 times weekly for 6 weeks),Inhibitory activity against AP-1 complex (AP-1 complex) [%],"serum Ca concentration (osteoporosis model rats [3]; OVX rats, orally 0.75, 1.5 or 3 µg/kg twice daily for 3 months)","urinary Dpyr excretion increased by OVX (osteoporosis model rats [3]; oral treatment twice daily for 3 months, urinary deoxypyridinoline, bone resorption marker)","decrease in the bone strength by OVX (osteoporosis model rats [3]; orally 0.75, 1.5 or 3 µg/kg twice daily for 3 months, fifth lumbar vertebra)","decrease in the bone mineral density by OVX (osteoporosis model rats [3]; orally 0.75, 1.5 or 3 µg/kg twice daily for 3 months, second to fourth lumbar vertebra)","VDRE-mediated transcription promoting activity relative to that of 1α,25-dihydroxyvitamin D3 (VDRE; fraction of the activity of 1α,25-dihydroxyvitamin D3)",Inhibitory activity against NF-κB family (NF-κB family) [%],"effect of suppressing the decrease in bone mineral density (osteoporosis model rats [2]; OVX rats, orally 3 µg/kg once daily or 1.5 µg/kg twice daily for 5 weeks, third lumbar vertebra)",affinity for a vitamin D receptor (vitamin D receptor) [times]
"C=C1/C(=C\C=C2/CCC[C@]3(C)[C@@H]([C@H](C)CCCC(C)(C)O)CC[C@@H]23)C[C@@H](O)C[C@@H]1O [1α,25-dihydroxyvitamin D3, reference compound]",significantly suppressed,100.00,,,,,,,,,,,,,,
C=C1/C(=C\C=C2/CCC[C@]3(C)[C@@H]([C@H](C)CCCC(C)C)CC[C@@H]23)C[C@@H](O)C[C@@H]1O [1α-hydroxyvitamin D3],,,significantly suppressed,significantly increased,significantly increased,,,,,,,,,,,
"C=C1/C(=C\C=C2/CCC[C@]3(C)C([C@@H](C)SCC(O)(CC)CC)=CC[C@@H]23)C[C@@H](O)C[C@@H]1O [Compound 22, 1α,3β-dihydroxy-20(R)-(2-ethyl-2-hydroxybutylthio)-9,10-secopregna-5,7,10(19),16-tetraene]",,1032.20,,,,significant suppressing effect,dose-dependent effect of suppressing the decrease in bone mineral density,3.74,without increases,significantly decreased,significantly suppressed,significantly suppressed,about 1/10,5.19,comparable to or higher than that of 1α-hydroxyvitamin D3,0.8
